Reference: patent US5177085A, “Dihydro-isoquinoline derivatives, processes for their production, pharmaceutical compositions containing them, and their use in treating asthma” (Sandoz Ltd., priority 1990, dated 1993)

What was measured:
[1] = system: PAF-induced airways hyperreactivity in guinea-pigs; test: Suppression of airways hyperreactivity in PAF-treated animals (Example B); type: in vivo; details: Cavia porcellus, iv; headed Example B (PAF-treated guinea-pigs); i.v.; pure or substantially pure [3S] enantiomer for Example 1; read-out: ID50 (dose required to increase relaxation by 50%)
Experimental: Guinea pigs (Dunkin-Hartley, male, 400-600g) are anesthetized with phenobarbital (100-mg/kg i.p.) and pentobarbital (30 mg/kg i.p.) and paralyzed with gallamine (10 mg/kg i.m.). Animals are ventilated via a tracheal cannula (10 ml/kg, 1 Hz) with a mixture of air and oxygen (1:1 v/v). Blood pressure and heart rate are recorded at the carotid artery. Ventilation is monitored by a Fleisch flow transducer in line with the inspiratory circuit. When making measurements of flow, coincident pressure changes in the thorax are monitored directly via an intrathoracic trochar, permitting display of differential pressure relative to the trachea. From this information in relation to flow and differential pressure, resistance [R1 ] and compliance [Ddyn ] are calculated using a digital respiratory analyzer for each respiratory cycle.
Guinea-pigs are anesthetized and prepared for recording of lung function as described under Example A.2. above. […] Following infusion of PAF (platelet activating factor) over 1 hr.

[2] = system: human bronchus ring preparations; test: Relaxation of human bronchus in vitro (Example A.1.b); type: cell-based; details: human bronchus rings; pure or substantially pure [3S] enantiomer for Example 1
Experimental: (§1) Guinea-pigs (Dunkin-Hartley, 350-500gm) are killed with Pentothal (100mg/kg i.p.). The trachea is dissected and a section 2-3cm in length excised. The trachea is transected in the transverse plane at alternate cartilage plates so as to give rings of tissue 3-5mm in depth. The proximal and distal rings are discarded. Individual rings are mounted vertically on stainless steel supports, one of which is fixed at the base of an organ bathm the other being attached to an isometric transducer. The rings are bathed in Krebs solution composition mM: NaHCo3 25, NaCl 113, KCl 4.7, MgSO4.7H2 O 1.2, KH2 PO4 1.2, CaCl2 2.5, Glucose 11.7) at 37° C. and gassed with O2 /CO2 (95:5,v/v). Rings prepared in this manner, preloaded with 1 g, generate spontaneous tone and, after a period of equilibration (45-60 min.), relax consistently on addition of spasmolytic drugs. To ascertain spasmolytic activity, test substances are dissolved in physiological saline and added in increasign quantities to the organ bath at 5 min. intervals to provide a cumulative concentration-effect curve.
The test is performed analogously to 1. a above but employing rings of human bronchus dissected from lung that has been resected for carcinoma. Dissected material is used immediately or first immersed in total calf serum containing DMSO ([…]), slowly frozen to -70° C. and stored in liquid N2 at -190° C. […]

[3] = system: guinea-pig tracheal ring preparations; test: Relaxation of guinea-pig tracheal smooth muscle in vitro (Example A.1.a); type: cell-based, Guinea-pig (Dunkin-Hartley); details: Cavia porcellus; guinea-pig tracheal rings, spontaneous tone, 37° C., cumulative; pure or substantially pure [3S] enantiomer for Example 1; read-out: IC50 (concentration required to increase relaxation by 50%)
Experimental: as §1

Compound: COc1cc(OC)cc(C2=N[C@H](CO)Cc3cc(OC)c(OC)cc32)c1 [Example 1, [3S] 3,4-dihydro-6,7-dimethoxy-1-(3,5-dimethoxyphenyl)-3-hydroxymethyl-isoquinoline]
- ED50 [1]: ~0.05 mg/kg
- IC50 [2]: 1.9 µM
- IC50 [3]: 0.18 µM

Compound: Cn1c(=O)c2[nH]cnc2n(C)c1=O [aminophylline]
- IC50 [2]: 158 µM
- IC50 [3]: 130 µM

Compound: Cn1c(=O)c2[nH]cnc2n(C)c1=O [theophyline]
- ED50 [1]: 3 mg/kg
